Data as given in PubChem BioAssay AID1053181 (The Scripps Research Institute Molecular Screening Center, 2014).
Activity calls are given as the source filed them. No rule for the calls is given here.

Biological target: Trace amine-associated receptor 1 (Homo sapiens) (UniProt Q96RJ0)
Assay: activators of human TAAR1 signalling – cell-based, fluorescence, MedChem round 2, SAR follow-up (AID 1053181)
Settings: TAAR1-expressing cells, fluorescence agonist read-out

Chain of Trace amine-associated receptor 1 (Homo sapiens) (Q96RJ0 whole entry, looked up): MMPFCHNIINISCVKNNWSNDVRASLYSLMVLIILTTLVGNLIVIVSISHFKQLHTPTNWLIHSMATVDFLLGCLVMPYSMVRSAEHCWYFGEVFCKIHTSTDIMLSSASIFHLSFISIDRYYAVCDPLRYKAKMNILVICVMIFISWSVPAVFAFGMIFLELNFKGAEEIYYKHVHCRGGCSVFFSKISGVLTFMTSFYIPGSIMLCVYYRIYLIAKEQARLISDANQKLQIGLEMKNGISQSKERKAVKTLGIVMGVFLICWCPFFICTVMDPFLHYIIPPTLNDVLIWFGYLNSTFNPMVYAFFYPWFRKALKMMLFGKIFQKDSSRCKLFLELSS

Row | EC50 | SMILES
1 | 1070 nM | N#Cc1c(C(F)(F)F)cc(-c2ccc(Cl)cc2)nc1SCC(=O)N1CCCC1
2 | > 29900 nM (inactive) | N#Cc1c(C(F)(F)F)cc(-c2ccc(Cl)cc2)nc1SCC(=O)N1CCCCCC1
3 | 672 nM | Cc1ccc(C(=O)CCN2CCC(c3ccccc3)C2)cc1 (configuration not stated)
4 | 2960 nM | CC(CN1CCCC1Cc1ccccc1)C(=O)c1ccc2c(c1)OCCO2 (configuration not stated)
5 | 419 nM | COc1cc(C(=O)CCN2CCC(c3ccccc3)C2)cc(OC)c1OC (configuration not stated)
6 | 765 nM | O=C(CCN1CCC(c2ccccc2)C1)c1ccccc1 (configuration not stated)
7 | 3.74 nM | N#Cc1c(C(F)(F)F)cc(-c2ccc(Cl)cc2)nc1SCC(=O)Nc1ncccn1
